Source: patent US20050228016A1, “TETRAHYDROQUINOLINES FOR MODULATING THE EXPRESSION OF EXOGENOUS GENES VIA AN ECDYSONE RECEPTOR COMPLEX” (priority 2002, published 2005)

Assays:
Gal4DBD/AaEcR (DEF) = molecular target: T1, Gal4DBD/AaEcR (DEF) (Aedes aegypti, UniProt P49880); assay: cell-based; format: cell-based; settings: 33 μM; 3T3 cells; 48 h; average of two wells
T1 construct: The wildtype D, E, and F domains from mosquito Aedes aegypti EcR; expressed in transfected cells; host or cells: 3T3 cells
Outline: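 Single-dose ligand testing at 33 μM, applied in serum medium after 4 h transfection. Host was 3T3 cells carrying Gal4DBD/AaEcR (DEF) plus a 5× GAL4 RE-driven firefly luciferase reporter (pFRLuc).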

[1] = test system: GAL4 DBD-CfEcR(DEF)/VP16AD-MmRXRE; settings: CHO 13B3 clone, 48 h, average of two wells
Text: GAL4 DBD-CfEcR(DEF)/VP16AD-MmRXRE: The wild-type D, E, and F domains from spruce budworm Choristoneura fumiferana EcR (“CfEcR-DEF”; SEQ ID NO: 1) were fused to a GAL4 DNA binding domain (“Gal4DBD1-147”; nucleotides 31 to 471 of SEQ ID NO: 2) and placed under the control of the SV40e promoter of pM vector (PT3119-5, Clontech, Palo Alto, Calif.). The D and E domains from Mus Musculus RXR (“MmRXR-DE”; SEQ ID NO: 22) were fused to the transactivation domain from VP16 (“VP16AD”; SEQ ID NO: 5) and placed under the control of the SV40e promoter of the pVP16 vector (PT3127-5, Clontech, Palo Alto, Calif.).
CHO cells were transiently transfected with transcription cassettes for GAL4 DBD-CfEcR(DEF) and for VP16AD-MmRXRE controlled by SV40e promoters. Stably transfected cells were selected using Hygromycin. Individually isolated CHO cell clones were transiently transfected with a GAL4 RE-luciferase reporter (pFR-Luc, Stratagene, La Jolla, Calif.). The 13B3 clone was selected using Zeocin.
Cells were trypsinized and diluted to a concentration of 2.5×10^4 cells mL. 100 μL of cell suspension was placed in each well of a 96 well plate and incubated at 37° C. under 5% CO2 for 24 h. Ligand stock solutions were prepared in DMSO and diluted 300 fold for all treatments.
Luciferase reporter gene expression was measured 48 h after cell treatment using Bright-Glo™ Luciferase Assay System from Promega (E2650). Luminescence was detected at room temperature using a Dynex MLX microtiter plate luminometer.
Each assay was conducted in two separate wells, and the two values were averaged. Fold inductions were calculated by dividing relative light units (“RLU”) in ligand treated cells with RLU in DMSO treated cells.

[2] = molecular target: T2, Bombyx mori EcR (VP16-BmEcR, CVBE) (Bombyx mori, UniProt P49881); assay: Z3 assay (HEK-293 clone Z3 with CVBE and 6x EcRE LacZ, β-galactosidase reporter); format: cell-based; settings: 48 h, average of two wells
T2 construct: expressed in transfected cells
T2 sequence (P49881 86-606): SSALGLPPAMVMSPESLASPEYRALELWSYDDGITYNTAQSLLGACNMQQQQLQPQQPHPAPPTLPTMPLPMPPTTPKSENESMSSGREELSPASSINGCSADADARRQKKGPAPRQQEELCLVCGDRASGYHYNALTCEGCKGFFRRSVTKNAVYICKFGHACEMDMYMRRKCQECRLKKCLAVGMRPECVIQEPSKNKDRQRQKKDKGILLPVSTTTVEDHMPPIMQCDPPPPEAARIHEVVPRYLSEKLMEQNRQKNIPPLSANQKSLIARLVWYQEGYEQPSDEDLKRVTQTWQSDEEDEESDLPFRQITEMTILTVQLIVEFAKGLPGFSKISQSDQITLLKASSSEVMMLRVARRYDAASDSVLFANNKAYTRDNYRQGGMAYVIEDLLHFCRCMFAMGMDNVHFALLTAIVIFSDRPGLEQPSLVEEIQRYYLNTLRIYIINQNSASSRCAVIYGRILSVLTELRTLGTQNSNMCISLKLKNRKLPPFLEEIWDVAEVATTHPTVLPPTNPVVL

T1 sequence (P28704 286-520 A311G/G315S/G445S/I449V): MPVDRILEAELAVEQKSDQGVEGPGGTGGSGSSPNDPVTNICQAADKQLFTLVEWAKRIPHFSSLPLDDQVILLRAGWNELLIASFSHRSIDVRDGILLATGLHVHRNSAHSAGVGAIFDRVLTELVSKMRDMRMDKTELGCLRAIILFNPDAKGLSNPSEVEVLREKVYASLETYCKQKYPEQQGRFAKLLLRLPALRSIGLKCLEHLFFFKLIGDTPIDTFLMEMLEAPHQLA
T1 sequence (P49880 405-776): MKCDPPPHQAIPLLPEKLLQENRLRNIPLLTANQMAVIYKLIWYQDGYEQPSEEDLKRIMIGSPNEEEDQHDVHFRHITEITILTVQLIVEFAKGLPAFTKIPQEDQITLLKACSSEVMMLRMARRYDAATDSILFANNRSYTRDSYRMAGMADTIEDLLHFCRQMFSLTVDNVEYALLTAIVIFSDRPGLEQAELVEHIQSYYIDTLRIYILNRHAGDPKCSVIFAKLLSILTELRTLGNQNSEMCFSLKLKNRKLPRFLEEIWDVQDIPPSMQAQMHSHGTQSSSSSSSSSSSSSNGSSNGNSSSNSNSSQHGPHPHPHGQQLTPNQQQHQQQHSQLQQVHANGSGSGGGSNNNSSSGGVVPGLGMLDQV

SMILES	Fold Induction Average, AA_3T3V1 Assay 33 μM (Gal4DBD/AaEcR (DEF)) [fold]	Fold Induction Average, 13B3V1 Assay 33 μM [1] [fold]	Fold Induction Average, Z3V1 Assay 33 μM [2] [fold]
Cc1ccc(C(=O)N2c3ccccc3C(Nc3ccccc3)CC2C)cc1 (mixture of isomers) [Compound I-39]	182	1	4
Cc1ccc(C(=O)N2c3ccccc3C(Nc3ccccc3Cl)CC2C)cc1 (mixture of isomers) [Compound I-41]	2	1	1
C[C@H]1C[C@H](Nc2ccccc2)c2ccccc2N1C(=O)c1ccc(F)c(F)c1 (relative stereo) [Compound I-15]	132	1	20
Cc1ccc(C(=O)N2c3ccccc3[C@@H](Nc3ccccc3)C[C@@H]2C)cc1F (relative stereo) [Compound I-16]	376	1	27
C[C@H]1C[C@H](Nc2ccccc2)c2ccccc2N1C(=O)c1ccc(C(F)(F)F)c(F)c1 (relative stereo) [Compound I-17]	135	1	9
Cc1ccc(N[C@H]2C[C@H](C)N(C(=O)c3ccc(C)c(F)c3)c3ccc(C)cc32)cc1 (relative stereo) [Compound I-22]	132	1	3
C[C@H]1C[C@H](Nc2ccc(F)cc2)c2cc(F)ccc2N1C(=O)c1ccc(F)c(F)c1 (relative stereo) [Compound I-26]	124	95	152
C[C@H]1C[C@H](Nc2ccc(F)cc2)c2cc(F)ccc2N1C(=O)c1ccc(C(F)(F)F)c(F)c1 (relative stereo) [Compound I-27]	112	6	119
Cc1ccc(N[C@@H]2C[C@H](C)N(C(=O)c3ccc(C)c(F)c3)c3ccc(C)cc32)cc1 (relative stereo) [Compound I-28]	1	1	1
C[C@H]1C[C@@H](Nc2ccccc2)c2ccccc2N1C(=O)c1ccc2c(c1)OCO2 (relative stereo) [Compound I-31]	48	1	1
COc1ccc(C=CC(=O)N2c3ccccc3[C@@H](Nc3ccccc3)C[C@@H]2C)cc1OC (relative stereo) [Compound I-146]	4	1	1
COc1ccc(C(=O)N2c3ccc(C)cc3[C@H](Nc3ccc(C)cc3)C[C@@H]2C)cc1 (stereo in doubt) [Compound I-152]	1	2	1
Cc1ccc(NC2CC(C)N(C(=O)c3ccc4c(c3)OCO4)c3ccc(C)cc32)cc1 (centres unmarked) [Compound I-34]	1	1	1
COc1cccc(C(=O)N2c3ccccc3C(Nc3ccccc3)CC2C)c1C (centres unmarked) [Compound I-50]	21	1	115
COc1cccc(C(=O)N2c3ccc(F)cc3C(Nc3ccc(F)cc3)CC2C)c1C (centres unmarked) [Compound I-58]	124	30	147
CC(=O)N(c1ccccc1)C1CC(C)N(C(=O)C=Cc2ccccc2)c2ccccc21 (centres unmarked) [Compound I-119]	1	3	1

SMILES	Fold Induction Average, AA_3T3V1 Assay 33 μM (Gal4DBD/AaEcR (DEF)) [fold]	Fold Induction Average, 13B3V1 Assay 33 μM [1] [fold]	Fold Induction Average, Z3V1 Assay 33 μM [2] [fold]
COc1ccc(C(=O)N(c2ccccc2)C2CC(C)N(C(=O)c3ccc(Cl)cc3)c3ccccc32)cc1 (centres unmarked) [Compound I-120]	249	1	
Cc1ccc(NC2CC(C)N(C(=O)c3ccc(F)cc3)c3ccc(C)cc32)cc1 (centres unmarked) [Compound I-124]	1	3	
COc1ccc(C(=O)N2c3ccccc3C(N(C(=O)c3cccs3)c3ccccc3)CC2C)cc1 (centres unmarked) [Compound I-131]	162	1	4
CCCCCc1ccc(C(=O)N2c3ccccc3C(Nc3ccccc3)CC2C)cc1 (centres unmarked) [Compound I-138]	5	1	1
COc1cccc(N(C(C)=O)C2CC(C)N(C(=O)c3ccccc3)c3ccccc32)c1 (centres unmarked) [Compound I-140]	1	2	1
Cc1ccc(NC2CC(C)N(C(=O)c3ccc(Cl)cc3)c3ccc(C)cc32)cc1 (centres unmarked) [Compound I-144]	73	4	1
CC1CC(Nc2ccccc2)c2ccccc2N1C(=O)c1cccc(Br)c1 (centres unmarked) [Compound I-148]	47	1	19
CC(=O)N(c1ccc(C)cc1)C1CC(C)N(C(=O)c2ccccc2)c2ccccc21 (centres unmarked) [Compound I-149]	1	3	
Cc1ccc(NC2CC(C)N(C(=O)c3cccc([N+](=O)[O-])c3)c3ccc(C)cc32)cc1 (centres unmarked) [Compound I-154]	1	4	1
CC1CC(N(C(=O)C2CC2)c2ccccc2)c2ccccc2N1C(=O)C1CC1 (centres unmarked) [Compound I-155]	1	1	1
CC1CC(Nc2ccccc2)c2ccccc2N1C(=O)c1cccc([N+](=O)[O-])c1 (centres unmarked) [Compound I-158]	207	118	18
Cc1ccc(C(=O)N(c2ccccc2)C2CC(C)N(C(=O)c3ccc(Cl)cc3)c3ccccc32)cc1 (centres unmarked) [Compound I-161]	28	1	
CC1CC(Nc2ccccc2)c2ccccc2N1C(=O)C=Cc1ccccc1 (centres unmarked) [Compound I-163]	4	26	27
CC(=O)N1c2ccccc2C(N(C(=O)c2ccccc2F)c2ccccc2)CC1C (centres unmarked) [Compound I-185]		1	1
Cc1ccc(N(C(=O)c2ccc3c(c2)OCO3)C2CC(C)N(C(=O)c3ccc4c(c3)OCO4)c3ccc(C)cc32)cc1 (centres unmarked) [Compound I-194]		1	
